Measurements reported in paper PMC3845967 (ACS medicinal chemistry letters, 2013).

Legend:
[1] = test system: MDA-MB-231 and MCF7 breast cancer cells; type: cell-based; details: for EC50: 72 h, read-out: EC50 (span over series and cell lines); for effect of substitution on activity compared to MKT-077: either cell line (MDA-MB-231, MCF7)
human Hsc70 = human Hsc70 (Homo sapiens, UniProt P11142); test: ELISA binding of biotinylated analogs to immobilized Hsc70
[2] = test system: mouse embryonic fibroblasts (MEFs); test: MTT toxicity assay, mouse embryonic fibroblasts; type: cell-based; details: for EC50: Mus musculus, Fibroblast
[3] = test system: fibroblasts or normal epithelial cells; details: cited from earlier work
[4] = test system: MDA-MB-231 and MCF7 cells; test: p62 oligomerization / autophagic flux; type: cell-based; details: 24 h
MDA-MB-231 cells = test: Cleavage of caspase-3 and PARP; type: cell-based; details: 48 h
[5] = test system: MDA-MB-231 breast cancer cells; test: MTT anti-proliferative assay, MDA-MB-231 cells; type: cell-based
MCF7 breast cancer cells = test: MTT anti-proliferative assay, MCF7 cells; type: cell-based

Chain of human Hsc70 (P11142 whole entry): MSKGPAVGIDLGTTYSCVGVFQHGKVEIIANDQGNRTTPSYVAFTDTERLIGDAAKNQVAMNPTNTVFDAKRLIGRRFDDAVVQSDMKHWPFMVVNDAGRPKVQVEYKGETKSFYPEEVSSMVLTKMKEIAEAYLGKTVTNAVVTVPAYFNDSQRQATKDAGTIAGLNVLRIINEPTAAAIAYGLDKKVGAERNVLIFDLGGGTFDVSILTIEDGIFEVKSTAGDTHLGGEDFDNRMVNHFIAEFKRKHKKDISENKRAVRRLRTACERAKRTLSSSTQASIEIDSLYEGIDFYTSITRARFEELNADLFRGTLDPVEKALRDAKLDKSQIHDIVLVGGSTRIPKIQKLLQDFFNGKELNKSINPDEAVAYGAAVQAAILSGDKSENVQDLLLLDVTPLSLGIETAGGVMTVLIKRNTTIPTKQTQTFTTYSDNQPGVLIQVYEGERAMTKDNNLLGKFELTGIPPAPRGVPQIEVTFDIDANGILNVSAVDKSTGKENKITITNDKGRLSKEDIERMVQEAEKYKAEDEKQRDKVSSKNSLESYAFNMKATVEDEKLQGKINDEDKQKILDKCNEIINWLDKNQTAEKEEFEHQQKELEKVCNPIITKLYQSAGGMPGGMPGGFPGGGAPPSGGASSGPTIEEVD

Q: Which EC50 [1] does the source give for `CCn1c(=O)/c(=C2\Sc3cc(C(F)(F)F)ccc3N2C)s/c1=C\c1cccc[n+]1C` [compound 16] here?
A: The EC50 was 3 to 30 µM.

Q: Which Kd (human Hsc70) does the source give for `CCn1c(=O)/c(=C2\Sc3cccc(Cl)c3N2C)s/c1=C\c1cccc[n+]1CCCCCCNC(=O)CCCC[C@@H]1SC[C@@H]2NC(=O)N[C@@H]21` [compound 38] here?
A: The Kd was 7.7 ± 1 µM.

Q: For `CCn1c(=O)/c(=C2\Sc3cc(F)ccc3N2C)s/c1=C\c1cccc[n+]1CC` [compound 7], which EC50 [1] is on record?
A: The EC50 was 0.8 to 13 µM.

Q: Which “effect of substitution on activity compared to MKT-077” value [1] does the source give for `C=CCn1c(=O)/c(=C2\Sc3ccccc3N2C)s/c1=C\c1cccc[n+]1C.[Cl-]` [compound 17] here?
A: The value was “did not substantially affect activity”.

Q: Which Kd (human Hsc70) does the source give for `CCn1c(=O)/c(=C2\Sc3cccc(F)c3N2C)s/c1=C\c1cccc[n+]1CCCCCCNC(=O)CCCC[C@@H]1SC[C@@H]2NC(=O)N[C@@H]21` [compound 34] here?
A: Its Kd is 10.9 ± 4.4 µM.

Q: Which EC50 [1] does the source give for `CCn1c(=O)/c(=C2\Sc3ccc(F)cc3N2C)s/c1=C\c1cccc[n+]1CC` [compound 6] here?
A: Its EC50 is 0.8 to 13 µM.

Q: Which EC50 [1] does the source give for `CCn1c(=O)/c(=C2\Sc3cc(OC)ccc3N2C)s/c1=C\c1cccc[n+]1C` [compound 14] here?
A: The EC50 was 3 to 30 µM.

Q: What does the source list for `CCn1c(=O)/c(=C2\Sc3ccccc3N2C)s/c1=C\c1cccc[n+]1C.[Cl-]` [YM-01, reference compound]?
A: EC50 [2]: > 50 µM; toxicity to fibroblasts or normal epithelial cells [3]: not toxic

Q: For `CCn1c(=O)/c(=C2\Sc3ccccc3N2C)s/c1=C\c1nccc[n+]1C.[Cl-]` [compound 23], which “fold reduction in potency” value ([1]; compared to MKT-077) is on record?
A: Its value is “approximately 2 fold”.

Q: For `CCn1c(=O)/c(=C2\Sc3cccc(F)c3N2C)s/c1=C\c1cccc[n+]1CC` [compound 5], which EC50 [1] is on record?
A: Its EC50 is 0.8 to 13 µM.

Q: For `CCn1c(=O)/c(=C2\Sc3cc(Cl)ccc3N2C)s/c1=C\c1cccc[n+]1C` [compound 11], which EC50 [1] is on record?
A: The EC50 was 4.1 to 28 µM.

Q: With `CN1/C(=c2\s/c(=C\c3cccc[n+]3C)n(Cc3ccccc3)c2=O)Sc2ccccc21.[Cl-]` [compound 18] as the compound, how does the “effect of substitution on activity compared to MKT-077” value [1] read?
A: The value was “did not substantially affect activity”.

Q: With `CCn1c(=O)/c(=C2\Sc3cc(F)ccc3N2C)s/c1=C\c1cccc[n+]1C` [compound 3] as the compound, how does the EC50 [1] read?
A: The EC50 was 2.2 to 18 µM.

Q: Which EC50 [1] does the source give for `CCn1c(=O)/c(=C2\Sc3c(Cl)cccc3N2C)s/c1=C\c1cccc[n+]1C` [compound 12] here?
A: Its EC50 is 4.1 to 28 µM.

Q: For `CCn1c(=O)/c(=C2\Sc3cc(Cl)ccc3N2C)s/c1=C\c1scc[n+]1Cc1ccccc1.[Cl-]` [compound 30], which “activity against MEFs compared to MKT-077” value [2] is on record?
A: The value was “increased activity against MEFs”.

Q: And the “autophagic flux (p62 oligomerization, p62 monomer)” value [4]?
A: The value was “strongly affected autophagic flux”.

Q: And the “cleavage of caspase-3 and PARP” value (MDA-MB-231 cells)?
A: The value was “activated”.

Q: Which EC50 [2] does the source give for `CCn1c(=O)/c(=C2\Sc3ccccc3N2C)s/c1=C\c1cccc[n+]1CC.[Cl-]` [MKT-077, reference compound] here?
A: The EC50 was over 50 µM.

Q: What about the “toxicity to fibroblasts or normal epithelial cells” value [3] of the same compound?
A: The value was “not toxic”.

Q: Which results are given for `CCn1c(=O)/c(=C2\Sc3cccc(F)c3N2C)s/c1=C\c1scc[n+]1Cc1ccccc1.[Cl-]` [compound 27]?
A: activity against MEFs compared to MKT-077 [2]: increased activity against MEFs; fold improvement in potency compared to MKT-077 [5]: more than 3 fold; fold improvement in potency compared to MKT-077 (MCF7 breast cancer cells): 2 fold

Q: Which results are given for `CCn1c(=O)/c(=C2\Sc3ccccc3N2C)s/c1=C\c1scc[n+]1Cc1ccccc1.[Cl-]` [compound 26]?
A: fold improvement in potency compared to MKT-077 [5]: 2 fold; fold improvement in potency compared to MKT-077 (MCF7 breast cancer cells): 4 fold

Q: Which EC50 [1] does the source give for `CCn1c(=O)/c(=C2\Sc3ccc(C(F)(F)F)cc3N2C)s/c1=C\c1cccc[n+]1C` [compound 15] here?
A: The EC50 was 3 to 30 µM.

Q: With `CCn1c(=O)/c(=C2\Sc3c(F)cccc3N2C)s/c1=C\c1cccc[n+]1CC` [compound 8] as the compound, how does the EC50 [1] read?
A: The EC50 was 0.8 to 13 µM.

Q: For `CCn1c(=O)/c(=C2\Sc3ccc(Cl)cc3N2C)s/c1=C\c1cccc[n+]1C` [compound 10], which EC50 [1] is on record?
A: The EC50 was 4.1 to 28 µM.

Q: For `CCn1c(=O)/c(=C2\Sc3ccccc3N2C)s/c1=C\c1scc[n+]1C.[Cl-]` [compound 24], which “fold improvement in potency compared to MKT-077” value (MCF7 breast cancer cells) is on record?
A: Its value is 3 fold.

Q: Which EC50 [1] does the source give for `CCn1c(=O)/c(=C2\Sc3cccc(Cl)c3N2C)s/c1=C\c1cccc[n+]1C` [compound 9] here?
A: The EC50 was 4.1 to 28 µM.

Q: For `CCn1c(=O)/c(=C2\Sc3cccc(F)c3N2C)s/c1=C\c1cccc[n+]1C` [compound 1], which EC50 [1] is on record?
A: The EC50 was 2.2 to 18 µM.

Q: Which EC50 [1] does the source give for `CCn1c(=O)/c(=C2\Sc3ccc(OC)cc3N2C)s/c1=C\c1cccc[n+]1C` [compound 13] here?
A: The EC50 was 3 to 30 µM.

Q: Which “fold improvement in activity compared to MKT-077” value ([1]; MDA-MB-231 and MCF7 cells) does the source give for `CCn1c(=O)/c(=C2\Sc3ccccc3N2C)s/c1=C\c1cccc[n+]1Cc1ccccc1.[Cl-]` [compound 20] here?
A: The value was “approximately 2 fold”.

Q: Which EC50 [1] does the source give for `CCn1c(=O)/c(=C2\Sc3c(F)cccc3N2C)s/c1=C\c1cccc[n+]1C` [compound 4] here?
A: The EC50 was 2.2 to 18 µM.

Q: Which EC50 [1] does the source give for `CCn1c(=O)/c(=C2\Sc3ccc(F)cc3N2C)s/c1=C\c1cccc[n+]1C` [compound 2] here?
A: The EC50 was 2.2 to 18 µM.

Q: Which Kd (human Hsc70) does the source give for `CCn1c(=O)/c(=C2\Sc3cccc(F)c3N2C)s/c1=C\c1scc[n+]1Cc1ccc(CNC(=O)CCCC[C@@H]2SC[C@@H]3NC(=O)N[C@@H]32)cc1` [compound 32] here?
A: Its Kd is 2.4 ± 0.4 µM.
